Literature values as cited in patent US7981649B2 (priority 2001, dated 2011).

Tested on: human hepatocyte and neuroblastoma cells

| Structure (SMILES) | effect on cell metabolism |
| --- | --- |
| CCOP(=O)(OCC)Oc1ccc([N+](=O)[O-])cc1 [paraoxon] | opposite effects on hepatocyte and neuroblastoma cell metabolism |
| CCOP(=S)(OCC)Oc1ccc([N+](=O)[O-])cc1 [parathion] | opposite effects on hepatocyte and neuroblastoma cell metabolism |
